Source: ChEMBL document CHEMBL6103554, “Neratinib derivative 7A induces apoptosis in colon cancer cells via the p53 pathway” (Bioorg Med Chem Lett, 2025)
pIC50: −log10 of the molar value. Active and inactive are the calls of the source. The calls are words filed in the database; no cut-off is given here.

What was measured:
HCT-116 [1] = experiment: Cytotoxicity against human HCT-116 cells assessed as inhibition rate incubated for 48 hrs by MTT; assay type: functional, cell-based; details: HCT-116, 48 h
HeLa = experiment: Cytotoxicity against human HeLa cells assessed as inhibition rate incubated for 48 hrs by MTT; assay type: functional, cell-based
MDA-MB-231 = experiment: Cytotoxicity against human MDA-MB-231 cells assessed as inhibition rate incubated for 48 hrs by MTT; assay type: functional, cell-based; details: MDA-MB-231, 48 h
A498 = experiment: Cytotoxicity against human A498 cells assessed as inhibition rate incubated for 48 hrs by MTT; assay type: functional, cell-based; details: A498, 48 h
HCT-116 [2] = experiment: Inhibition of cell proliferation in human HCT-116 cells at 10 uM by colony formation assay relative to control; assay type: functional, cell-based
HCT-116 [3] = experiment: Inhibition of cell adhesion in human HCT-116 cells at 10 uM; assay type: functional, cell-based
HCT-116 [4] = experiment: Inhibition of cell migration in human HCT-116 cells assessed as repair capacity at 5 to 10 uM measured upto 48 hrs by scratch assay; assay type: functional, cell-based; details: dose 5-10 µM
HCT-116 [5] = experiment: Inhibition of cell adhesion in human HCT-116 cells at 5 uM; assay type: functional, cell-based
HCT-116 [6] = experiment: Inhibition of cell invasion in human HCT-116 cells at 5 uM by Transwell assay; assay type: functional, cell-based
HCT-116 [7] = experiment: Activation of TNFR-mediated TNF signaling pathway in human HCT-116 cells by GSEA analysis; assay type: cell-based; details: filed as activator
[8] = biological target: Cellular tumor antigen p53 (Homo sapiens) (UniProt P04637); experiment: Activation of p53 signaling pathway in human HCT-116 cells by GSEA analysis; assay type: cell-based; details: filed as activator
HCT-116 [9] = experiment: Induction of DNA damage in human HCT-116 cells assessed as upregulation of gamma-H2AX level incubated for 24 hrs by immunoblotting analysis; assay type: functional, cell-based; details: dose 2.5-10 µM
HCT-116 [10] = experiment: Antitumor activity against human HCT116 cells xenografted in chick embryo chorioallantoic membrane assessed as reduction in tumor volume by CAM assay; assay type: functional, cell-based; details: dose 5-10 µM
HCT-116 [11] = experiment: Induction of DNA damage in human HCT-116 cells assessed as upregulation of gamma-H2AX level at 10 uM by immunoblotting analysis; assay type: functional, cell-based
HCT-116 [12] = experiment: Induction of DNA damage in human HCT-116 cells assessed as upregulation of p53 level at 10 uM incubated for 24 hrs by immunoblotting analysis; assay type: functional, cell-based
HCT-116 [13] = experiment: Induction of DNA damage in human HCT-116 cells assessed as upregulation of BAX level at 10 uM incubated for 24 hrs by immunoblotting analysis; assay type: functional, cell-based
HCT-116 [14] = experiment: Induction of DNA damage in human HCT-116 cells assessed as downregulation of BCL2 level at 10 uM incubated for 24 hrs by immunoblotting analysis; assay type: functional, cell-based
HCT-116 [15] = experiment: Induction of DNA damage in human HCT-116 cells assessed as upregulation of p53 level at 5 uM incubated for 24 hrs by immunofluorescence based analysis; assay type: functional, cell-based
HCT-116 [16] = experiment: Induction of DNA damage in human HCT-116 cells assessed as upregulation of p53 level at 10 uM incubated for 24 hrs by immunofluorescence based analysis; assay type: functional, cell-based
HCT-116 [17] = experiment: Induction of DNA damage in human HCT-116 cells assessed as upregulation of p21 level incubated for 24 hrs by PCR analysis; assay type: functional, cell-based; details: dose 2.5-10 µM
HCT-116 [18] = experiment: Antitumor activity against human HCT116 cells xenografted in chick embryo chorioallantoic membrane assessed as reduction in angiogenesis by CAM assay; assay type: functional, cell-based; details: dose 5-10 µM

Cellular tumor antigen p53 (Homo sapiens), sequence (P04637 whole entry, looked up): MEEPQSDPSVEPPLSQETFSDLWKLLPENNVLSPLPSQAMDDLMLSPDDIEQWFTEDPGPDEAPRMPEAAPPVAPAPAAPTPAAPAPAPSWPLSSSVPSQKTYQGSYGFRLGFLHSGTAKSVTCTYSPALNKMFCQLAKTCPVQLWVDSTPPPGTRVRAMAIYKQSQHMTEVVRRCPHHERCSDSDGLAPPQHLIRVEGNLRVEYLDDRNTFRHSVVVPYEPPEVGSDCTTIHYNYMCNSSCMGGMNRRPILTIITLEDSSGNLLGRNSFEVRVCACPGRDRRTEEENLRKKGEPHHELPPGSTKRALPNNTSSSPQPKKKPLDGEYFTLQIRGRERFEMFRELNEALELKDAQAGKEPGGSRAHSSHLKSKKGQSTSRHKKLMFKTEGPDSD

Row | Compound | pIC50 (HCT-116 [1]) | pIC50 (HeLa) | pIC50 (MDA-MB-231) | pIC50 (A498) | inhibition (HCT-116 [2]) | inhibition (HCT-116 [3]) | Activity (HCT-116 [4]) | further results
1 | CCOc1cc2ncc(C#N)c(Nc3ccc(OCc4ccccn4)c(Cl)c3)c2cc1NC(=O)/C=C/CN(C)C [NERATINIB] | 4.76 | 4.74 | 4.56 | 4.71 | Active | Active | Active | 
2 | O=C(Nc1ccc(OCc2ccccn2)c(Cl)c1)c1ccc(CN2CCN(C(=O)C3CC3)CC2)cc1 | 5.14 | 4.87 | 4.75 | 4.73 | Active; Significantly Decreased Colony Formation | Active | Dose-dependent-effect; Stronger Inhibition | inhibition (HCT-116 [5]): Active; inhibition (HCT-116 [6]): Active; Activity (HCT-116 [7]): Active; Activity [8]: Active; Activity (HCT-116 [9]): Dose-dependent-effect; Activity (HCT-116 [10]): Dose-dependent-effect; Activity (HCT-116 [11]): Time-dependent-effect; Activity (HCT-116 [12]): Active; Activity (HCT-116 [13]): Active; Activity (HCT-116 [14]): Active; Activity (HCT-116 [15]): Active; Activity (HCT-116 [16]): Active; Activity (HCT-116 [17]): Dose-dependent-effect; Activity (HCT-116 [18]): Dose-dependent-effect
